Results as given in patent US20130096159A1, “INHIBITORS OF HUMAN 12-LIPOXYGENASE” (The United States of America, as represented the Secretary …, priority 2010, published 2013).

Experiments:
[1] = tested on: P-selectin on the surface of human platelets; assay: α-granule secretion, P-selectin expression by flow cytometry; format: cell-based; details: vs agonists alone (thrombin, PAR1-AP, PAR4-AP, ADP); FIG. 4
Description: (§1) Human platelets were obtained from healthy volunteers from within the Thomas Jefferson University community and the Philadelphia area. These studies were approved by the Thomas Jefferson University Institutional Review Board. Informed consent was obtained from all donors before blood draw. Blood was centrifuged at 200 g for 15 min at room temperature. Platelet-rich plasma was transferred into a conical tube containing a 10% acid citrate dextrose solution (39 mM citric acid, 75 mM sodium citrate, and 135 mM glucose, pH 7.4) and centrifuged at 2000 g for 15 min at room temperature. Platelets were resuspended in Tyrode's buffer (12 mM NaHCO3, 127 mM NaCl, 5 mM KCl, 0.5 mM NaH2PO4, 1 mM MgCl2, 5 mM glucose, and 10 mM HEPES), and the final platelet concentration was adjusted as indicated after counting using a Coulter counter (Beckman Coulter, Fullerton, Calif.). Reported results are the data obtained using platelets from at least three different subjects.
Washed platelets were obtained as described in Example 10. Flow cytometry was used to measure the secretion of α-granules. Specifically, P-selectin expression was used to detect α-granule secretion. […] The fluorescence intensity of 10,000 platelets was immediately measured using a C6 Accuri flow cytometer. […]

human 12-lipoxygenase = molecular target: T1, human 12-lipoxygenase (Homo sapiens, UniProt P18054); assay: human 12-lipoxygenase inhibition (12hLO) assay, absorbance at 234 nm; format: biochemical
T1 sequence (P18054 1-663): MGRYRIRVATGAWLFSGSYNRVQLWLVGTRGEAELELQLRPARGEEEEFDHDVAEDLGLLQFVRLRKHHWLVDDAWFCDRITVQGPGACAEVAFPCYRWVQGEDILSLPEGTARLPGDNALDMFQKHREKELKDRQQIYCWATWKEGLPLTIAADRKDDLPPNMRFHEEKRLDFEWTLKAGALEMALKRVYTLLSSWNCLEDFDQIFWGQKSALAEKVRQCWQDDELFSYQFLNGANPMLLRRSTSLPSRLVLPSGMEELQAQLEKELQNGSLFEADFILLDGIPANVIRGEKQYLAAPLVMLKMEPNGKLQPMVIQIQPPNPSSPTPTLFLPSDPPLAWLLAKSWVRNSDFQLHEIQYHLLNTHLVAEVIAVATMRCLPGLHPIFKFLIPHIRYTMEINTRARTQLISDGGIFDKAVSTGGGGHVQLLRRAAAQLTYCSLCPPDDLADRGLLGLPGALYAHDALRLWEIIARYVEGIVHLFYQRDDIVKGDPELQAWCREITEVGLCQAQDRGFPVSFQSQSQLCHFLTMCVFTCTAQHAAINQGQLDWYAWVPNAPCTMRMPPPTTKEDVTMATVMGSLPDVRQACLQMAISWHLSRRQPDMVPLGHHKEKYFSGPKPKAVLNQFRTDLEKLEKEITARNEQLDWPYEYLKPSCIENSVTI

[2] = tested on: integrin αIIbβ3 in human platelets; assay: activation of integrin αIIbβ3, PAC1 binding by flow cytometry; format: cell-based; details: vs agonists alone (thrombin, PAR1-AP, PAR4-AP, ADP); FIG. 5
Description: as §1
Washed platelets were obtained as described in Example 10. Flow cytometry was used to measure the activation of integrin αIIbβ3. Specifically, PAC1 (an antibody which only binds to αIIbβ3 when the protein is in its active conformation) binding was used to selectively detect the conformational activation of αIIbβ3. […] The fluorescence intensity of 10,000 platelets was immediately measured using a C6 Accuri flow cytometer. […]

CCC(=O)NC(c1cccs1)c1cc([N+](=O)[O-])c2cccnc2c1O (stereo not shown) [Compound 1, N-((8-hydroxy-5-nitroquinolin-7-yl)(thiophen-2-yl)methyl)propionamide]
expression of P-selectin on the surface of the platelets [1]: decreased expression of P-selectin
selectivity for inhibition of human 12-lipoxygenase as compared with human 5-lipoxygenase, 15-lipoxygenase-1 and 15-lipoxygenase-2 (human 12-lipoxygenase): exhibited selectivity
IC50 (human 12-lipoxygenase; 12hLO Inhibition, Table 1, read-out: IC50 (μM) [± SD μM]): 0.8 µM
binding of PAC1 on the surface of the platelets [2]: decreased binding of PAC1
